Test results taken from US10828301B2, “2,4-pyrimidinediamine compounds and their uses” (Rigel Pharmaceuticals, Inc, priority 2002, dated 2020).

Tests used:
[1] = tested on: cultured human mast cells (CHMC); experiment: CHMC low cell density ionomycin activation: tryptase assay; assay type: cell-based; settings: Low Density CHMC, ionomycin activation, tryptase readout, read-out: CHMC Ionomycin Tryptase
[2] = tested on: cultured human mast cells (CHMC); experiment: CHMC low cell density IgE activation: tryptase and LTC4 assays; assay type: cell-based; settings: Low Density CHMC, anti-IgE activation, tryptase readout, read-out: CHMC anti-IgE Tryptase
Summary of the method: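 Degranulation measured after 30 min anti-IgE challenge at 37° C of CHMC plated at 1000-1500 cells/well following 1 h preincubation. Readouts: LTC4 by ELISA on donor-specific diluted supernatants, and tryptase activity from a 30 min room-temperature substrate reaction.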

IC50 ([1]; Homo sapiens, Mast cell)	IC50 ([2]; Homo sapiens, Mast cell)	IC50 [1]	IC50 [2]	Compound
> 10 µM	1.18 µM	–	–	OCc1cccc(Nc2nc(Nc3ccc4c(c3)OCCO4)ncc2F)c1 [Compound R925758, N2-(3,4-Ethylenedioxyphenyl)-5-fluoro-N4-[3-(hydroxymethyl)phenyl]-2,4-pyrimidinediamine]
> 10 µM	> 10 µM	–	–	COc1ccc(Nc2ccnc(Nc3ccc(OC)c(-c4ccccc4)c3)n2)cc1-c1ccccc1 [Compound R925806, N2,N4-Bis(4-methoxy-3-phenylphenyl)-2,4-pyrimidinediamine]
> 10 µM	3.2 µM	–	–	c1ccc(-c2cnc(Nc3ccc4c(c3)OCCO4)nc2Nc2ccc3c(c2)OCCO3)cc1 [Compound R925784, N2,N4-Bis(3,4-ethylenedioxyphenyl)-5-phenyl-2,4-pyrimidinediamine]
> 10 µM	0.748 µM	–	–	OCCN(CCO)c1cccc(Nc2ncc(F)c(Nc3ccc4c(c3)OCCO4)n2)c1 [Compound R950209, N2-[3-Bis(hydroxyethyl)aminophenyl]-N4-(3,4-ethylenedioxyphenyl)-5-fluoro-2,4-pyrimidinediamine]
> 10 µM	0.511 µM	–	–	CN1C=COc2cc(Nc3ncc(F)c(Nc4cccc(O)c4)n3)ccc21 [Compound R908704, 5-Fluoro-N4-(3-hydroxyphenyl)-N2-(N-methyl-1,4-benzoxazin-7-yl)-2,4-pyrimidinediamine]
8.8 µM	1.18 µM	–	–	Clc1nc(Nc2ccc3c(c2)OCCO3)nc(Nc2ccc3c(c2)OCCO3)c1Cl [Compound R926467, N2,N4-Bis(3,4-ethylenedioxyphenyl)-5,6-dichloro-2,4-pyrimidinediamine]
> 10 µM	1.1 µM	–	–	Fc1cc(F)cc(Nc2ncc(F)c(Nc3ccc4c(c3)OCCO4)n2)c1 [Compound R926898, N4-(3,4-Ethylenedioxyphenyl)-5-fluoro-N2-(3,5-difluorophenyl)-2,4-pyrimidinediamine]
> 10 µM	> 10 µM	–	–	Brc1cnc(Nc2ccccc2-c2ccccc2)nc1Nc1ccccc1-c1ccccc1 [Compound R925798, N2,N4-Bis(2-phenylphenyl)-5-bromo-2,4-pyrimidinediamine]
> 10 µM	0.457 µM	–	–	COc1ccc(Nc2nc(Nc3cccc(O)c3)ncc2F)cc1Cl [Compound R926945, N4-(3-Chloro-4-methoxyphenyl)-5-fluoro-N2-(3-hydroxyphenyl)-2,4-pyrimidinediamine]
> 10 µM	0.244 µM	–	–	OCCOc1ccc(Nc2ncc(F)c(Nc3ccc4c(c3)OCCO4)n2)cc1 [Compound R945144, N4-(3,4-Ethylenedioxyphenyl)-5-fluoro-N2-[4-(2-hydroxyethyloxy)phenyl]-2,4-pyrimidinediamine]
6.82 µM	0.401 µM	–	–	Cc1cc(Nc2ncc(F)c(Nc3cccc(C(C)(C)C)c3)n2)cc(Cl)c1O [Compound R940271, N4-(3-tert-Butylphenyl)-N2-(3-chloro-4-hydroxy-5-methylphenyl)-5-fluoro-2,4-pyrimidinediamine]
> 10 µM	0.885 µM	–	–	CC(C)Oc1ccc(Nc2nc(Nc3ccc(OCC(O)CO)cc3)ncc2F)cc1 (centres unmarked) [Compound R935175, N2-[4-(2,3-Dihydroxypropoxy)phenyl]-5-fluoro-N4-(4-isopropoxyphenyl)-2,4-pyrimidinediamine]
> 10 µM	> 10 µM	–	–	CCOC(=O)CNc1nc(NCC(=O)OCC)c(N)c(C(=O)OCC)n1 [Compound R925865, 5-Amino-N2,N4-bis(ethoxycarbonylmethyl)-6-ethoxycarbonyl-2,4-pyrimidinediamine]
> 10 µM	0.667 µM	–	–	CC(C)(C)c1cccc(Nc2ncc(F)c(Nc3cccc(O)c3)n2)c1 [Compound R940257, N2-(3-tert-Butylphenyl)-5-fluoro-N4-(3-hydroxyphenyl)-2,4-pyrimidinediamine]
> 10 µM	1.73 µM	–	–	Cc1ccc(F)c(Nc2ncc(F)c(Nc3ccc4c(c3)OCCO4)n2)c1 [Compound R926897, N4-(3,4-Ethylenedioxyphenyl)-5-fluoro-N2-(2-fluoro-5-methylphenyl)-2,4-pyrimidinediamine]
99 µM	0.215 µM	–	–	COC(=O)C1Cc2cc(Nc3ncc(F)c(Nc4ccc(Cl)c(Cl)c4)n3)ccc2O1 (racemic) [Compound R927031, (±)-N4-(3,4-Dichlorophenyl)-N2-(2,3-dihydro-2-methoxycarbonylbenzofuran-5-yl)-5-fluoro-2,4-pyrimidinediamine]
> 10 µM	> 10 µM	–	–	CCOC(=O)Cc1ccc(Nc2ncc(C(F)(F)F)c(Nc3ccc(CC(=O)OCC)cc3)n2)cc1 [Compound R926663, N2,N4-Bis[4-(ethoxycarbonylmethyl)phenyl]-5-trifluoromethyl-2,4-pyrimidinediamine]

IC50 ([1]; Homo sapiens, Mast cell)	IC50 ([2]; Homo sapiens, Mast cell)	IC50 [1]	IC50 [2]	Compound
> 10 µM	1.06 µM	–	–	O=S(=O)(c1ccc(Nc2ncc(F)c(Nc3ccc4c(c3)OCCO4)n2)cc1)N1CCCC1 [Compound R926716, N4-(3,4-Ethylenedioxyphenyl)-5-fluoro-N2-[4-(tetrahydro-(1H)-pyrrol-1-ylsulfonyl)phenyl]-2,4-pyrimidinediamine]
> 10 µM	1.32 µM	–	–	Oc1cccc(Nc2ncc(F)c(Nc3ccc(Cl)cn3)n2)c1 [Compound R927020, N4-(5-Chloropyridin-2-yl)-5-fluoro-N2-(3-hydroxyphenyl)-2,4-pyrimidinediamine]
> 10 µM	0.244 µM	–	–	Cc1cc(Nc2ncc(F)c(Nc3ccc4c(c3)N=CCO4)n2)cc(Cl)c1O [Compound R909255, N4-(1,4-Benzoxazin-6-yl)-N2-(3-chloro-4-hydroxy-5-methylphenyl)-5-fluoro-2,4-pyrimidinediamine]
> 10 µM	> 10 µM	–	–	COc1ccc(Nc2ncc(Br)c(Nc3ccc(OC)c(-c4ccccc4)c3)n2)cc1-c1ccccc1 [Compound R925802, N2,N4-Bis(4-methoxy-3-phenylphenyl)-5-bromo-2,4-pyrimidinediamine]
> 10 µM	3.66 µM	–	–	Fc1cnc(NCC2COc3ccccc3O2)nc1Nc1ccc2c(c1)OCCO2 (centres unmarked) [Compound R950206, N2-(2,3-Dihydro-1,4-benzodioxin-2-ylmethyl)-N4-(3,4-ethylenedioxyphenyl)-5-fluoro-2,4-pyrimidinediamine]
> 10 µM	> 10 µM	–	–	CCOC(=O)c1cnc(Nc2ccc3c(c2)OCCO3)nc1NOCc1ccccc1 [Compound R925837, N4-Benzyloxy-5-ethoxycarbonyl-N2-(3,4-ethylenedioxyphenyl)-2,4-pyrimidinediamine]
> 10 µM	> 10 µM	–	–	Fc1cnc(Nc2ccc3c(c2)OCCO3)nc1NC1CCCCC1 [Compound R925794, N4-Cyclohexyl-N2-(3,4-ethylenedioxyphenyl)-5-fluoro-2,4-pyrimidinediamine]
> 10 µM	0.195 µM	–	–	Oc1c(Cl)cc(Nc2ncc(F)c(Nc3ccc4c(c3)OCCO4)n2)cc1Cl [Compound R926763, N4-(3,4-Ethylenedioxyphenyl)-5-fluoro-N2-(3,5-dichloro-4-hydroxyphenyl)-2,4-pyrimidinediamine]
> 10 µM	1.29 µM	–	–	CC(C)Oc1ccc(Nc2ncc(F)c(Nc3cccc(N)c3)n2)cc1 [Compound R950165, N4-(3-Aminophenyl)-5-fluoro-N2-(4-isopropoxyphenyl)-2,4-pyrimidinediamine]
–	–	> 10 µM	> 10 µM	COC(=O)c1ccc(CNc2ncc(C#N)c(NCc3ccc(C(=O)OC)cc3)n2)cc1 [Compound R925819, N2,N4-Bis(methoxycarbonylbenzyl)-5-cyano-2,4-pyrimidinediamine]
> 10 µM	0.263 µM	–	–	Oc1cccc(Nc2ncc(F)c(Nc3ccc4c(c3)N=CCO4)n2)c1 [Compound R909243, N4-(1,4-benzoxazin-6-yl)-5-fluoro-N2-(3-hydroxyphenyl)-2,4-pyrimidinediamine]
–	–	> 10 µM	0.246 µM	CNC(=O)COc1cccc(Nc2ncc(F)c(Nc3ccc4c(c3)C(=NO)CCC4)n2)c1 [Compound R926948, 5-Fluoro-N4-(1,2,3,4-tetrahydro-1-hydroxyiminonaphthalen-7-yl)-N2-[3-[(N-methylamino)carbonylmethyleneoxy]phenyl]-2,4-pyrimidinediamine]
> 10 µM	0.551 µM	–	–	Oc1cccc(Nc2nc(Nc3cccc(-c4cc[nH]n4)c3)ncc2F)c1 [Compound R926841, 5-Fluoro-N4-(3-hydroxyphenyl)-N2-[3-(1H-pyrazol-3-yl)phenyl]-2,4-pyrimidinediamine]
> 10 µM	> 10 µM	–	–	CCOC(=O)C=Nc1ccc(Nc2ncc(C(=O)OCC)c(Nc3ccc(N=CC(=O)OCC)cc3)n2)cc1 [Compound R926331, N2,N4-Bis(4-ethoxycarbonylmethyleneaminophenyl)-5-ethoxycarbonyl-2,4-pyrimidinediamine]
> 10 µM	1.45 µM	–	–	CC(C)(C)c1ccc(Nc2nc(Nc3ccc4oc(C(=O)O)cc4c3)ncc2F)cc1 [Compound R926481, N4-(4-tert-Butylphenyl)-N2-(2-carboxybenzofuran-5-yl)-5-fluoro-2,4-pyrimidinediamine]
> 10 µM	2.2 µM	–	–	CC(C)Oc1ccc(Nc2ncc(F)c(Nc3ccc(OC(C)C)cc3)n2)cc1 [Compound R926701, N2,N4-Bis(4-isopropoxyphenyl)-5-fluoro-2,4-pyrimidinediamine]
> 10 µM	0.583 µM	–	–	CNC(=O)C1Cc2cc(Nc3ncc(F)c(Nc4ccc(F)c(F)c4)n3)ccc2O1 (racemic) [Compound R927035, (±)-N4-(3,4-Difluorophenyl)-5-fluoro-N2-[2,3-dihydro-2-(N-methylamino)carbonylbenzofuran-5-yl]-2,4-pyrimidinediamine]
